The text below walks through data of patent US20260200903A1, “PHARMACEUTICAL COMPOSITION FOR AMELIORATING MALIGNANT DISEASES” (KINKI UNIVERSITY, priority 2020, published 2026).

What all share (type): cell-based
The subject of assay [1] is RR1 cells (rituximab-resistant burkitt lymphoma cell line). In words: Cell death inducing effect on RR1 cells, trypan blue staining. The following applies: RR1 (Burkkit lymphoma; rituximab resistance), cell viability. Here is the method:
Raji cells, a burkitt lymphoma cell line, were modified to be rituximab-resistant and named RR1 cells.
RR1 cells (rituximab-resistant burkitt lymphoma cell line) were cultured under 5% CO2 at 37° C. The culture medium used RPMI-1640 medium with 100 μg/mL penicillin, 100 U/mL streptomycin and fetal bovine serum. RR-1 cells were seeded into 96-well plates and incubated with each concentration of the compounds was added, and cell viability was determined by the trypan blue staining.
For controls, only 0.5% DMSO (diluted in PBS) used to dissolve the compounds was added. For each concentration, each bar line is indicated by an arrow with the sign “n, a, 1, 2, 3, 4, 5, 6, 7, 8, 9, 10, 11, 12” from left to right. The “1, 3, 5, 7, 9, 11” are omitted from the graph, but the sign “1” shall be indicated by an arrow between the signs “a” and “2”, the sign “3” between the signs “2” and “4”, and other odd numbers shall likewise be indicated by arrows between even numbers before and after.
The sign “n” is the norathyriol (formula (n)) administration group, the sign “a” is the mangiferin 8a (formula (a)) administration group, the sign “1” is the yk-7 (formula (1)) administration group, the sign “2” is the yk-8-1 (formula (2)) administration group, the sign “3” is the yk-8-3 (formula (3)) administration group, the sign “4” is the M7 (formula (4)) administration group, the sign “5” is the M9 (formula (5)) administration group, the sign “6” is the M11 (formula (6)) administration group, the sign “7” is the M12 (formula (7)) administration group, the sign “8” is the M14 (formula (8)) administration group, the sign “9” is the M15 (formula (9)) administration group, the sign “10” is the M16 (formula (10)) administration group, the sign “11” is the M18 (formula (11)) administration group, the sign “12” is the M19 (formula (12)) administration group, respectively. The IC50 values for each compound is also listed in the upper right corner of the figure.

The subject of another assay is phospho-IKK. In words: Immunoblotting of phospho-IKK in KMS-28BM cells. The following applies: 72 h, vs control, same concentrations as for phospho-NIK (0.005-100 μM). Here is the method: (§1) Immunoblotting was performed on KMS-28BM cells to investigate the inhibitory effect of each compound administration on NIK inhibition and the activation of IKK, NF-κB p52, and NF-κB p65, which are downstream signals of NIK. As a result, inhibition of NIK activation, inhibition of IKK activity, and inhibition of nuclear translocation of NF-κB p52 and NF-κB p65 were observed (FIG. 15 and FIG. 16).
(§2) As a control, compounds untreated KMS-28BM cells were seeded in 150 cm^2 flasks and incubated for 72 h at 37° C. and 5% CO2. KMS-28BM cells were seeded into 150 cm^2 flasks and pre-cultured for 24 h. After incubation, KMS-28BM cells were treated with […], 1 μM norathyriol, 0.5 μM M7 (formula (4)), 1 μM M8 (mangiferin 8a: listed in duplicate), 0.2 μM M9 (formula (5)), 5 μM yk-7 (formula (1)), 0.5 μM yk-8-3 (formula (3)) and 100 μM yk-8-1 (formula (2)) at final concentrations, and incubated for 72 h at 37° C. and 5% CO2. In addition, KMS-28BM cells were also treated with 0.5 μM M19 (formula (12)), 0.5 μM M18 (formula (11)), 0.005 μM M16 (formula (10)), […] (formula (9)), 0.005 μM M14 (formula (8)), 0.05 μM M12 (formula (7)) and […] (formula (6)) at the final concentrations, and incubated for 72 h at 37° C. and 5% CO2. Proteins were extracted from these cell suspensions with cell lysate and used as samples.
(§3) The nucleus and cytoplasmic substrate were separated from the cells using the ProteoExtract (registered trademark) Subcellular Proteome Extraction Kit from Merck Ltd. to extract the cytoplasmic and nuclear fractions.
(§4) After SDS-PAGE, each sample was transferred to a PVDF membrane and examined using anti-phospho-NIK, anti-NIK, anti-phospho-IKK, anti-IKK, anti-P-actin, anti-NF-κB p52 and anti-NF-κB p65 antibody, and anti-Lamin antibody.
(§5) The antibody species is indicated in the vertical direction. Specifically, for anti-phospho-NIK antibody, “Phospho-NIK” was used, for anti-NIK antibody, “NIK” was used, for anti-phospho-IKK antibody, “Phospho-IKK” was used, for anti-IKK antibody, “IKK” was used, for anti-p-actin antibody, “p-actin” was used, for anti-NF-κB p52 antibody, “NF-κB p52 nuclear” was used, for anti-NF-κB p65 antibody, “NF-κB p65 nuclear” was used, and for anti-Lamin antibody, “Lamin” was used.
Background: Immunoblotting shows a protein as a band on a membrane.

In another assay the target is T1, phospho-NIK (Homo sapiens, UniProt Q99558).
T1 construct: Proteins were extracted from these cell suspensions with cell lysate and used as samples; endogenous in cells; host or cells: KMS-28BM (myeloma)
As to the kind of experiment: Immunoblotting of phospho-NIK in KMS-28BM cells. The following applies: 72 h, vs control, 1 μM mangiferin 8a/M8, 1 μM norathyriol, 0.5 μM M7, 0.2 μM M9, 5 μM yk-7, 0.5 μM yk-8-3, 100 μM yk-8-1, 0.5 μM M19, M18, M11, 0.005 μM M16, M15, M14, 0.05 μM M12. As for the experimental part: as §1, §2, §3, §4, §5

The test system of another assay is CD138. As to the kind of experiment: CD138 expression in L363 cells, flow cytometry. The following applies: 10 days, concentration lower than the IC50 (0.005-50 μM), compared to the positive control. Here is the method: As a control, compounds untreated L363 cells were seeded in 75 cm^2 flasks and incubated for 10 days at 37° C. and 5% CO2. L363 cells were seeded into 75 cm^2 flasks and pre-cultured for 4 h. After incubation, L363 cells were treated with 0.1 μM M7, 0.05 μM M9, 0.1 μM yk-7, 0.1 μM yk-8-3, 50 μM yk-8-1, 0.1 μM M11, 0.01 μM M12, 0.005 μM M14, 0.005 μM M15, 0.005 μM M16, 1 μM M18, and 1 μM M19 at final concentrations, and incubated for 10 days at 37° C. and 5% CO2. This added amount is a concentration lower than the IC50 of the above compounds for L363 cells. After 10 days of incubation, cells were stained with anti-CD138 antibody, a marker of multiple myeloma grade, and CD138 expression was measured using BD LSRFortessa.
Results are shown in FIG. 25, FIG. 26, FIG. 27 and FIG. 28. The horizontal axis represents the expression level of CD138 and the vertical axis represents the number of cells.
For orientation: A flow cytometer gives signals particle by particle.

In general, IC50 refers to the concentration that gives 50% inhibition.

T1 sequence (Q99558 whole entry): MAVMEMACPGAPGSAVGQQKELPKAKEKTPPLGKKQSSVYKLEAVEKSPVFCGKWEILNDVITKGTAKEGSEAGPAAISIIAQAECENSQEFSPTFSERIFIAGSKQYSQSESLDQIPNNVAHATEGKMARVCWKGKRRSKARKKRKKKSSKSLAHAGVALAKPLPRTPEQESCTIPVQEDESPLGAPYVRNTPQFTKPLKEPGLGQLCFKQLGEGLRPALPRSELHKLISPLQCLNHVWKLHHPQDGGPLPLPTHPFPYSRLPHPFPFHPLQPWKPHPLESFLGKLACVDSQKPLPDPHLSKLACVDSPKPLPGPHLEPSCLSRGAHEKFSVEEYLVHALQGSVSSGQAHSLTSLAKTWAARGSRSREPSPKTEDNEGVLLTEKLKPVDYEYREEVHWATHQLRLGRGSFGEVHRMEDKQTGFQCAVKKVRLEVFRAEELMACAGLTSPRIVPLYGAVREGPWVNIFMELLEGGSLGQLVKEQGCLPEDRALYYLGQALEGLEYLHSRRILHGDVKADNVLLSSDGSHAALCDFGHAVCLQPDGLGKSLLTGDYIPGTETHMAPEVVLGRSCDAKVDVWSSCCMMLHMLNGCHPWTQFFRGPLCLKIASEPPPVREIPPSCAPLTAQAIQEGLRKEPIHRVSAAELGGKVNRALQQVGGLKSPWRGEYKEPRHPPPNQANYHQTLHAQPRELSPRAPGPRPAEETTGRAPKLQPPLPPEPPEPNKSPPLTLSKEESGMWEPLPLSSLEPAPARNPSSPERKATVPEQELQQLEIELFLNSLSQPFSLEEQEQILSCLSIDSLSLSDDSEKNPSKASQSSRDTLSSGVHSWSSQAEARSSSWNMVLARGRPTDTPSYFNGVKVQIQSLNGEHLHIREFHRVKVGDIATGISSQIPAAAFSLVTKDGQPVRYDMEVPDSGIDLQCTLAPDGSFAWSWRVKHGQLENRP

“1,2′,3′,4′,6-penta-O-propionylmangiferin [Compound 8a, reference compound]” had an IC50 in assay [1] of 328 nM. Also, in the assay with phospho-IKK, the “phospho-IKK band density (anti-phospho-IKK antibody)” value (“phospho-IKK band density” below) is “decrease in band density”. Further, the “phospho-NIK band density (anti-phospho-NIK antibody)” value (shortened to “phospho-NIK band density”) at phospho-NIK is reported as “decrease in band density”.

`CCC(=O)OC[C@H]1O[C@@H](c2c(OC(=O)CC)cc3oc4cc(OC(=O)CC)c(OC(=O)CC)cc4c(=O)c3c2OC(=O)CC)[C@H](OC(=O)CC)[C@@H](OC(=O)CC)[C@@H]1OC(=O)CC` [Compound M7, 1,3,2′,3′,4′,6,6′,7-octa-O-propionylmangiferin] registered an IC50 in assay [1] of 99 nM. Moreover, the CD138 expression levels result in the assay on CD138 is listed as “markedly reduced”. The “phospho-IKK band density” value in the assay with phospho-IKK was “decrease in band density”. Besides, on phospho-NIK, the “phospho-NIK band density” value is reported as “decrease in band density”.

In assay [1], `CCC(=O)OC[C@H]1O[C@@H](c2c(O)cc3oc4cc(O)c(O)cc4c(=O)c3c2O)[C@H](OC(=O)CC)[C@@H](OC(=O)CC)[C@@H]1OC(=O)CC` [Compound M9, 2′,3′,4′,6′-tetra-O-propionylmangiferin] had a 50% inhibitory concentration (IC50) of 7 nM. In addition, the CD138 expression levels result with CD138 is “markedly reduced”. Besides, in the assay with phospho-IKK, the “phospho-IKK band density” value is listed as “decrease in band density”. Further, at phospho-NIK, the “phospho-NIK band density” value is “decrease in band density”.

For the compound `CCCC(=O)OC[C@H]1O[C@@H](c2c(OC(=O)CCC)cc3oc4cc(OC(=O)CCC)c(OC(=O)CCC)cc4c(=O)c3c2OC(=O)CCC)[C@H](OC(=O)CCC)[C@@H](OC(=O)CCC)[C@@H]1OC(=O)CCC` [Compound M11, 1,3,2′,3′,4′,6,6′,7-octa-O-butyrylmangiferin], in assay [1], half-maximal inhibition (IC50) was put at 828 nM. In the assay on CD138, the CD138 expression levels entry is listed as “markedly reduced”. For the same compound, the “phospho-IKK band density” value with phospho-IKK is recorded as “decrease in band density”. Further, at phospho-NIK, the “phospho-NIK band density” value is reported as “decrease in band density”.

The compound `CCCC(=O)OC[C@H]1O[C@@H](c2c(O)cc3oc4cc(O)c(O)cc4c(=O)c3c2OC(=O)CCC)[C@H](OC(=O)CCC)[C@@H](OC(=O)CCC)[C@@H]1OC(=O)CCC` [Compound M12, 1,2′,3′,4′,6-penta-O-butyrylmangiferin] came in with a half-inhibitory concentration (IC50) in assay [1] of 15 nM. Further, the CD138 expression levels result in the assay on CD138 is “markedly reduced”. Moreover, the “phospho-IKK band density” value in the assay with phospho-IKK is “decrease in band density”. Further, at phospho-NIK, the “phospho-NIK band density” value is given as “decrease in band density”.

The compound `CCCC(=O)OC[C@H]1O[C@@H](c2c(O)cc3oc4cc(O)c(O)cc4c(=O)c3c2O)[C@H](OC(=O)CCC)[C@@H](OC(=O)CCC)[C@@H]1OC(=O)CCC` [Compound M14, 2′,3′,4′,6′-tetra-O-butyrylmangiferin] came in with a concentration for half-maximal inhibition (IC50) in assay [1] of 8 nM. In addition, the CD138 expression levels entry in the assay with CD138 is “markedly reduced”. Further, the “phospho-IKK band density” value in the assay on phospho-IKK was “decrease in band density”. In addition, the “phospho-NIK band density” value on phospho-NIK is “decrease in band density”.

On to `CC(C)(C)C(=O)OC[C@H]1O[C@@H](c2c(O)cc3oc4cc(O)c(O)cc4c(=O)c3c2O)[C@H](OC(=O)C(C)(C)C)[C@@H](OC(=O)C(C)(C)C)[C@@H]1OC(=O)C(C)(C)C` [Compound M15, 2′,3′,4′,6′-tetra-O-pivaloylmangiferin], for which inhibition in assay [1] was half-maximal at 11 nM (IC50). Moreover, the CD138 expression levels entry in the assay with CD138 is “markedly reduced”. Also, the “phospho-IKK band density” value with phospho-IKK is listed as “decrease in band density”. Further, the “phospho-NIK band density” value on phospho-NIK is “decrease in band density”.

In assay [1], `CCCCO[C@@H]1[C@@H](OCCCC)[C@H](c2c(O)cc3oc4cc(O)c(O)cc4c(=O)c3c2O)O[C@H](COC(=O)CCC)[C@H]1OC(=O)CCC` [Compound M16, 2′,3′-di-O-butyl-4′,6′-di-O-butyrylmangiferin] returned an IC50 of 7 nM. Moreover, in the assay with CD138, the CD138 expression levels result is listed as “markedly reduced”. For the same compound, the “phospho-IKK band density” value with phospho-IKK is given as “decrease in band density”. Besides, the “phospho-NIK band density” value at phospho-NIK was “decrease in band density”.

For the compound `O=c1c2cc(O)c(O)cc2oc2cc(O)cc(OCCO)c12` [Compound M18, 3,6,7-trihydroxy-1-(2-hydroxyethoxy)-9H-xanthen-9-one], the IC50 in assay [1] is 651 nM. Besides, the CD138 expression levels entry in the assay on CD138 is listed as “markedly reduced”. For the same compound, the “phospho-IKK band density” value with phospho-IKK is recorded as “decrease in band density”. Moreover, on phospho-NIK, the “phospho-NIK band density” value is recorded as “decrease in band density”.

In the case of `C=CCOc1cc(O)cc2oc3cc(O)c(O)cc3c(=O)c12` [Compound M19, 1-allyloxy-3,6,7-trihydroxy-9H-xanthen-9-one], the IC50 in assay [1] was determined as 791 nM. For the same compound, in the assay on CD138, the CD138 expression levels result was “markedly reduced”. In addition, the “phospho-IKK band density” value in the assay on phospho-IKK was “decrease in band density”. The “phospho-NIK band density” value at phospho-NIK is “decrease in band density”.

`O=c1c2cc(O)c(O)cc2oc2cc(O)cc(O)c12` [norathyriol, reference compound]: it took 737 nM to reach half-maximal inhibition in assay [1] (IC50). In the assay with phospho-IKK, the “phospho-IKK band density” value is reported as “decrease in band density”. Moreover, the “phospho-NIK band density” value at phospho-NIK is listed as “decrease in band density”.

Take `CCCCC(=O)OC[C@H]1O[C@@H](c2c(O)cc3oc4cc(O)c(O)cc4c(=O)c3c2O)[C@H](OC(=O)CCCC)[C@@H](OC(=O)CCCC)[C@@H]1OC(=O)CCCC` [yk-7, 2′,3′,4′,6′-tetra-O-valerylmangiferin]: 42 nM corresponded to half-maximal inhibition in assay [1] (IC50). Also, the CD138 expression levels entry with CD138 was “markedly reduced”. Further, the “phospho-IKK band density” value in the assay on phospho-IKK is “decrease in band density”. For the same compound, the “phospho-NIK band density” value at phospho-NIK is recorded as “decrease in band density”.
